In ChEMBL document CHEMBL1150080, “Asimilobin and cis- and trans-murisolinones, novel bioactive Annonaceous acetogenins from the seeds of Asimina triloba” (J Nat Prod, 1995) one finds EC50 and LC50 data, which are given here for four compounds.

Molecules are shown by their SMILES. In brackets after ≈: the same amount, converted by molar mass.

The test system of series [1] is A549. Briefly: Cytotoxicity against human A549 cells after 7 days by MTT assay. It counts as functional. The following applies: A549, 168 h, read-out: ED50 (the source's name). On the technique in general: Formazan colour is commonly taken as a measure of viable cells.
The test system of series [2] is A498. Put plainly: Cytotoxicity against human A498 cells after 7 days by MTT assay. It counts as functional. The following applies: A498, 168 h, read-out: ED50 (the source's name).
Series [3] is described as follows: Toxicity to brine shrimp larvae. It counts as organism-based. To be noted: artemia, in vivo.
Series [4] has as its system HT-29. Put plainly: Cytotoxicity against human HT-29 cells after 7 days by MTT assay. It counts as functional. To be noted: HT-29, 168 h, read-out: ED50 (the source's name).
Series [5] deals with PC-3. Put plainly: Cytotoxicity against human PC3 cells after 7 days by MTT assay. It counts as functional. To be noted: PC-3, 168 h, read-out: ED50 (the source's name).
The test system of series [6] is MIA PaCa-2. Briefly: Cytotoxicity against human MIAPaCa2 cells after 7 days by MTT assay. It counts as functional. The following applies: MIA PaCa-2, 168 h, read-out: ED50 (the source's name).
The subject of series [7] is MCF7. Put plainly: Cytotoxicity against human MCF7 cells after 7 days by MTT assay. It counts as functional. The following applies: MCF7, 168 h, read-out: ED50 (the source's name).

For `CCCCCCCCCCC[C@@H](O)[C@H]1CC[C@H]([C@H](O)CCCCCCCCCC[C@@H]2C[C@H](CC(C)=O)C(=O)O2)O1`, the EC50 is 0.148 µg/mL (≈ 0.261 µM) in series [1]; 3.44 µg/mL (≈ 6.07 µM) in series [2]; 0.754 µg/mL (≈ 1.33 µM) in series [4]; 1.48 µg/mL (≈ 2.61 µM) in series [5]; 0.107 µg/mL (≈ 0.189 µM) in series [6]; 0.0793 µg/mL (≈ 0.14 µM) in series [7]. Further, the LC50 (in general, the concentration lethal to half of the exposed cells or organisms) in series [3] amounted to 12.3 µg/mL (≈ 21.7 µM).

For the compound `CCCCCCCCCCC[C@@H](O)[C@H]1CC[C@H]([C@H](O)CCCCCCCCCC[C@H]2C[C@H](CC(C)=O)C(=O)O2)O1`, the EC50 in series [1] was found to be 0.0276 µg/mL (≈ 0.0487 µM); in series [2] it was 1.23 µg/mL (≈ 2.17 µM); in series [4], 1.16 µg/mL (≈ 2.05 µM); in series [5] it was 0.214 µg/mL (≈ 0.378 µM); in series [6], 0.0059 µg/mL (≈ 0.0104 µM); in series [7] it was 0.0296 µg/mL (≈ 0.0522 µM). In addition, in series [3], the median lethal concentration (LC50) was 18.2 µg/mL (≈ 32.1 µM).

`CCCCCCCCCCCCCC[C@H](O)[C@@H]1CC[C@@H]([C@@H]2CC[C@@H](CCCCC[C@@H](O)CC3=C[C@H](C)OC3=O)O2)O1` [ASIMILOBIN]: the EC50 worked out at 0.0301 µg/mL (≈ 0.052 µM) in series [1]; 0.0226 µg/mL (≈ 0.039 µM) in series [2]; 0.063 µg/mL (≈ 0.109 µM) in series [4]; 1.47 µg/mL (≈ 2.54 µM) in series [5]; 0.104 µg/mL (≈ 0.18 µM) in series [6]; 2.14 µg/mL (≈ 3.7 µM) in series [7]. For the same compound, the 50% lethal concentration (LC50) in series [3] stood at 1.06 µg/mL (≈ 1.83 µM).

Consider `COc1cccc2c1C(=O)c1c(O)c3c(c(O)c1C2=O)C[C@@](O)(C(=O)CO)C[C@@H]3O[C@H]1C[C@H](N)[C@H](O)[C@H](C)O1` [DOXORUBICIN], for which the EC50 was found to be 0.00101 µg/mL (≈ 0.00186 µM) in series [1]; 0.0262 µg/mL (≈ 0.0482 µM) in series [4]; 0.0196 µg/mL (≈ 0.0361 µM) in series [5]; 0.00132 µg/mL (≈ 0.00243 µM) in series [6]; 0.0103 µg/mL (≈ 0.019 µM) in series [7].
